Measured values taken from patent US8809389B2, “Substituted alkynyl phenoxy compounds as new synergists in pesticidal compositions” (Endura S.p.A., priority 2009, dated 2014).

Legend:
[1] = tested on: pollen beetle, Meligethes aeneus; test: Discriminating dose bioassay: α-cypermethrin in mixture with synergist; assay type: in vivo; conditions: for % Mortality: 24 h
Protocol: Two pyrethroid resistant populations originating from two different areas in Poland ‘Rogalin'and lebork’ were collected in July 2008. A putative susceptible population, UK population, was also collected in July 2008 in Hertfordshire, UK. All populations were collected from oilseed rape contained adults only and were kept at room temperature before assays were performed.
Bioassays incorporating the compounds (Compound of Example 2 and Compound of Example 3) dissolved in acetone, were carried out using a diagnostic concentration of α-cypermethrin derived from the above full dose response bioassays in a mixture of 0.01 g L^−1 of the compounds. The concentration of α-cypermethrin used for the discriminating dose bioassays was 0.3 ppm α-cypermethrin for the two polish populations, Rogalin and Lebork and 0.03 ppm α-cypermethrin for UK population. Vials treated with the compounds only, dissolved in acetone and acetone only were used as controls. Ten to 15 replicates were used for each treatment depending on insect numbers within the population. Compounds concentrations chosen conferred no mortality in preliminary bioassays.
Treated vials including the pollen beetles were stored in constant environment facilities at 18±2° C. and 16L: 8D. All bioassays were scored at an endpoint of 24 h after exposure to the insecticide. Insects incapable of coordinated movement (after gentle touching with a pencil brush if necessary) were scored as dead.

[2] = target: T1, purified resistance-associated esterase (E4) (Myzus persicae, UniProt P35501); test: Esterase interference assay (indirect determination of esterase inhibition); assay type: biochemical; conditions: for Esterase protection (%) after pre-incubation with compound: no esterase = 0%, uninhibited E4 = 100%
T1 construct: 5 g of aphids (stored at −20° C.) were homogenised in 0.02 M phosphate buffer pH 7.0; from tissue; host or cells: whole Myzus persicae aphids, clone 794JZ; homogenate purified over G-25 and DEAE Sepharose Fast Flow
T1 sequence (P35501 24-552): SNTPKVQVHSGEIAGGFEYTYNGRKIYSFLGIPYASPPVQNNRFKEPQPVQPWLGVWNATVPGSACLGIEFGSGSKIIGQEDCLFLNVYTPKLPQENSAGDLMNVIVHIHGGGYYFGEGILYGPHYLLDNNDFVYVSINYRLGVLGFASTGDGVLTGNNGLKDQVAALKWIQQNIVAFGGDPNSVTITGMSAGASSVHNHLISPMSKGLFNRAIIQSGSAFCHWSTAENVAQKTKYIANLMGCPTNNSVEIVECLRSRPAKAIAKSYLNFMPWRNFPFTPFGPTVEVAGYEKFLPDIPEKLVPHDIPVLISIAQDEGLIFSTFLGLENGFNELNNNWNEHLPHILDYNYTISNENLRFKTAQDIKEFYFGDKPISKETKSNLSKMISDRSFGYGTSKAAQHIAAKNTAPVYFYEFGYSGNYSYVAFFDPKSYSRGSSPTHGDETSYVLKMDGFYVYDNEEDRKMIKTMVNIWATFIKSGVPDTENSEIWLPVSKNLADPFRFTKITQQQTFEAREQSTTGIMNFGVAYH
Description: Measuring the in vitro inhibition is not straight forward, as synergists may bind to a site other than the active site.
The esterase used was the well-characterised resistance associated esterase purified from M. persicae, E4, (aphid clone: 794JZ) as per Devonshire (1977) with some modifications(Devonshire A L, The properties of a carboxylesterase from the peach-potato aphid, Myzus persicae (Sulz.) and its role in conferring insecticide resistance. Biochem J 167: 675-683 (1977)). Briefly, 5 g of aphids (stored at −20° C.) were homogenised in 0.02 M phosphate buffer pH 7.0 and centrifuged at 20 000 g for 10 min. The supernatant was passed through a G-25 column using 0.02M Tris/HCl, pH 8.5 buffer. Unretarded fractions containing esterase activity were further chromatographed through DEAF Sepharose Fast Flow (Amersham Biosciences) and eluted with a linear 0-0.35 M NaCl gradient in 500 ml of Tris/HCl as above. Fractions containing carboxylesterase activity in the form of E4 were concentrated, desalted, and buffer exchanged to 0.02 M phosphate pH 7.0 for storage.
Interactions of the purified resistance-associated esterase (E4) with Compound of Example 2, Compound of Example 3, Compound of Example 4, Compound of Example 9 and Compound of Example 11 were performed using the ‘esterase interference assay’, as described by Khot et al., with some modifications. Devonshire A L, The properties of a carboxylesterase from the peach-potato aphid, Myzus persicae (Sulz.) and its role in conferring insecticide resistance. Biochem J 167: 675-683 (1977)). Briefly, stock solutions of novel synergists (3 mM in acetone) were pre-incubated with pure E4, to give a final concentration of 0.03 mM, for 16 h at 4° C. Aliquots (15 μl ) of E4, E4+Compound of Example 2, E4+Compound of Example 3, E4+Compound of Example 4, E4+Compound of Example 9 and E4+Compound of Example 11 were incubated for 1 h with 60 μl of serial dilutions of azamethiphos in 0.02M phosphate buffer, pH 7, in separate wells of a NUNC microplate. Aliquots (25 p1) of house fly head homogenate (source of AChE) were added to each well and incubated for 15 minutes at room temperature. E4 in acetone and buffer only served as the positive and the negative controls respectively. AChE activity was measured at 405 nm using a Tmax kinetic microplate reader (Molecular Devices, Menlo Park, Calif.). Readings were taken automatically for 10 min at 10 s intervals. The rate (mOD min^−1) was calculated by the integrated software, Softmax Pro 4.6. All treatments were performed in triplicate.
No added esterase is giving 0% esterase protection and uninhibited esterase (E4) is giving 100% protection.
The materials and procedure as stated in Example 13, paragraphs 13.1, 13.1.2, 13.1.2.1 and 13.1.2.2. have been used and the following results have been obtained: […]

CC#CCOc1cc2c(cc1CCC)OCO2 [Example 3, 5-(but-2-ynyloxy)-6-propyl-benzo[1.3]dioxole] was tested. Which “% Mortality” value ([1]; Lebork, 0.3 ppm α-cypermethrin in mixture with 0.01 g L^−1 synergist) did it give?
Its value is 86.53%.

And the “Mortality” value ([1]; Rogalin and Lebork, 0.3 ppm α-cypermethrin in mixture with 0.01 g L^−1 synergist)?
The value was “around 85%”.

What about the “% Mortality” value ([1]; Rogalin, 0.3 ppm α-cypermethrin in mixture with 0.01 g L^−1 synergist) of the same molecule?
Its value is 97.06%.

And the “% Mortality” value ([1]; UK population, 0.03 ppm α-cypermethrin in mixture with 0.01 g L^−1 synergist)?
The value was 68.78%.

And the “Mortality with the compound only” value ([1]; synergist only, without α-cypermethrin (data not shown))?
The value was “No mortality”.

And the “Reduction of esterase protection, comparison in words” value ([2]; E4 esterase interference assay, Examples 13 and 16)?
Its value is “better activity than compounds 4, 7, respectively”.

And the “Esterase protection (%) after pre-incubation with compound” value ([2]; Table 2 (Example 13), 0.03 mM compound pre-incubated with E4 16 h at 4° C.)?
The value was 0.97%.

And the “Esterase protection (%) after pre-incubation with compound” value ([2]; second 'TABLE 3' (Example 16), procedure as Example 13)?
Its value is 0.98%.
